Source: patent publication US20240092863A1, “ANTIMICROBIAL TARGET” (priority 2020, published 2024)
Where a SMILES comes first, the peptide text is derived from it. Bridges are numbered along the chain shown (N, C = ends). Where no end group is shown, it is not given here. [ ]: non-standard residue; d: D form. S5 = C=CCCC[C@](C)(N)C(=O)O

Columns and labels:
S. aureus [1] = test: S. aureus adhesion to HaCaT human keratinocyte cells (bacterial adhesion assay, CFU); type: cell-based, Staphylococcus aureus; details: 200 nM peptide; FIG. 1B
Experimental: HaCaT human keratinocyte cells were cultured in DMEM supplemented with 10% (v/v) foetal bovine serum. Cells were subcultured by trypsinisation. For bacterial adhesion assays, HaCaT cells (10,000 cells/well) were grown overnight in 96-well plates.
For infection assays, bacterial were cultured from a single agar plate colony overnight in 5 ml of the appropriate growth medium. Then cultures were harvested by centrifugation, washed with 10 ml PBS, re-suspended in growth medium and incubated to achieve an OD600 equivalent to 5×10^8 CFU/ml. Cultures were again harvested by centrifugation, washed twice with PBS and re-suspended in DMEM at an appropriate density.

S. aureus SH1000 [2] = details: cited from earlier work
S. aureus [3] = details: reference [7]; cited from earlier work
P. aeruginosa PA01 = test: Stability to bacterial cultures (P. aeruginosa PA01), residual activity in infection assay on HaCaT; type: in vitro ADME, Pseudomonas aeruginosa; details: 4 hrs incubation with growing culture
trypsin = test: Protease stability: trypsin digestion, LC-MS; type: in vitro ADME; details: 100 ug/ml peptide, trypsin 2 mg/ml, 37° C., 1 hour
[4] = Protease stability: trypsin digestion, LC-MS; type: in vitro ADME; details: 100 ug/ml peptide, trypsin 2 mg/ml, 37° C., 18 hours; read-out: peptide still undigested in trypsin at 18 hours
chymotrypsin = test: Protease stability: chymotrypsin digestion, LC-MS; type: in vitro ADME; details: 100 ug/ml peptide, chymotrypsin 2 mg/ml, 25° C., 1 hour
[5] = Protease stability: chymotrypsin digestion, LC-MS; type: in vitro ADME; details: 100 ug/ml peptide, chymotrypsin 2 mg/ml, 25° C., 18 hours; read-out: peptide still undigested in chymotrypsin at 18 hours
S. aureus SH1000 [6] = system: S. aureus SH1000
Experimental: Protease stability was assessed using trypsin, chymotrypsin and human serum. Peptides at 100 μg/ml were incubated in 100 mM ammonium bicarbonate+2 mM calcium chloride were digested using trypsin (2 mg/ml), chymotrypsin (2 mg/ml) or human serum (25% (v/v)) for 1 or 18 hours. Digestion was performed at 37° C. for trypsin and human serum, and 25° C. for chymotrypsin. Reaction was stopped with 2.5% formic acid for trypsin and chymotrypsin. Human serum proteins were precipitated with acetonitrile. Supernatants were analysed on LC-MS. Stability to bacterial proteases was also analysed in cultures of S. aureus SH100 and P. aeruginosa PA01. 20 nM peptides in Keratinocyte-Serum Free Medium (KFSM) were incubated with mid-log phase cultures of bacteria for 4 hours. Bacteria were then removed by centrifugation and the supernatants used in bacterial adhesion assays, as described below.
Human cells in 96-well plates were washed with 200 ul HBSS and incubated with 200 μl 5% (w/v) BSA for 1 hour at 37° C., washed twice with 200 μl HBSS prior to incubation for 1 hour at 37° C. with peptides diluted in DMEM, or DMEM alone for control well. After removal of peptide solutions, wells were infected for 1 hour at 37° C. with 50 μl bacteria suspended in DMEM at optimised multiplicities of infection (MOI). […]

S. aureus SH1000 [7] = test: Mouse in vivo skin infection model; set-up: species or system Staphylococcus aureus; details: mice, 200 nM peptide mixed with S. aureus SH1000 in a bandage on depilated skin; FIG. 9
Experimental: C57/Bl6 mice were shaved to produce a bare area of approximately 2×2 cm. Depilatory cream was applied to depilate this area. A bandage was applied that contained a saline solution containing 200 nM of mouse 800-CAP, its scrambled control or human 800ii, and S. aureus SH1000. After 5 days, the mice were sacrificed and the depilated skin processed to release bacteria. The infection was assessed as CFU, and normalised to untreated control mice (=100). The experiment was performed 3 times using groups of 3 mice for each condition. Data are shown as the means of each separate experiment. Significance of the difference from 100 was calculated using a one-sample t test.

1: synthetic peptide with helix-preserving Ala residues replacing Glu26/Arg29 (DAPQAETLKAIHYALN; Glu26/Arg29 mutant 800-Cap peptide) [compound 1]
inhibitory activity against S. aureus adhesion to human keratinocyte line HaCaT (S. aureus [1]): no activity

6: synthetic peptide with helix-preserving Ala residues replacing Ile35/Leu39 (DEPQRETLKAAHYAAN; Ile35/Leu39 mutant 800-Cap peptide) [compound 6]
inhibitory activity against S. aureus adhesion to human keratinocyte line HaCaT (S. aureus [1]): no activity

800: short peptide derived from the primary sequence of the tetraspanin CD9 large extracellular domain (EC2); previously published (EPQRETLKAIHYALN; 800 peptide sequence) [compound 800]
activity against S. aureus adhesion to a wound model of human skin (S. aureus SH1000 [2]; previously published (Ventress et al., 2016)): active
bacterial burden in a 3D model of human skin (S. aureus SH1000 [2]; reference [7]): effective in lowering bacterial burden
functional activity, time and dose dependence (S. aureus [3]): functionally active in a time and dose-dependent manner
reduction of adherence of Staphylococcus aureus binding to human keratinocyte cells (S. aureus [3]): can reduce the adherence

CC[C@H](C)[C@H](NC(=O)[C@H](C)NC(=O)[C@H](CCCCN)NC(=O)[C@H](CC(C)C)NC(=O)[C@]1(C)CCCC=CCCC[C@](C)(NC(=O)[C@H](CCC(=O)O)NC(=O)[C@@H](N)CC(=O)O)C(=O)N[C@@H](CCC(N)=O)C(=O)N[C@@H](CCCNC(=N)N)C(=O)N[C@@H](CCC(=O)O)C(=O)N1)C(=O)N[C@@H](Cc1c[nH]cn1)C(=O)N[C@@H](Cc1ccc(O)cc1)C(=O)N[C@@H](C)C(=O)N[C@@H](CC(C)C)C(=O)N[C@@H](CC(N)=O)C(=O)O [800i] (H-DE[S5]QRE[S5]LKAIHYALN-OH; staple 3-7; N-terminus and C-terminus assumed)
resistance of peptide activity to P. aeruginosa PA01 culture (P. aeruginosa PA01): resistant

CC[C@H](C)[C@@H]1NC(=O)[C@@](C)(NC(=O)[C@H](CCCCN)NC(=O)[C@H](CC(C)C)NC(=O)[C@@H](NC(=O)[C@H](CCC(=O)O)NC(=O)[C@H](CCCNC(=N)N)NC(=O)[C@H](CCC(N)=O)NC(=O)[C@@H]2CCCN2C(=O)[C@H](CCC(=O)O)NC(=O)[C@@H](N)CC(=O)O)[C@@H](C)O)CCCC=CCCC[C@@](C)(C(=O)N[C@@H](CC(C)C)C(=O)N[C@@H](CC(N)=O)C(=O)O)NC(=O)[C@H](Cc2ccc(O)cc2)NC(=O)[C@H](Cc2c[nH]cn2)NC1=O [800ii] (H-DEPQRETLK[S5]IHY[S5]LN-OH; staple 10-14; N-terminus and C-terminus assumed)
digestion by trypsin after 1 hour (trypsin): not digested at all
remaining at 18 h, 100 µg/ml [4]: 50%
digestion by chymotrypsin after 1 hour (chymotrypsin): not digested at all
remaining at 18 h, 100 µg/ml [5]: 20%
resistance of peptide activity to P. aeruginosa PA01 culture (P. aeruginosa PA01): resistant

DEPQRETLKAIHYALN [800-Cap]
digestion by trypsin after 1 hour (trypsin): completely digested
digestion by chymotrypsin after 1 hour (chymotrypsin): completely digested
peptide activity degraded by incubation with P. aeruginosa PA01 culture (P. aeruginosa PA01; residual activity on S. aureus SH1000 / HaCaT): ~50%
peptide activity degraded by incubation with S. aureus SH1000 culture (S. aureus SH1000 [6]): ~50%

SEQ ID NO: 17: shorter form of peptide 800-Cap (DEPQRETL; first short form of 800-Cap)
inhibitory activity against S. aureus adhesion to human keratinocyte line HaCaT (S. aureus [1]): little or no inhibitory activity

SEQ ID NO: 18: shorter form of peptide 800-Cap (KAIHYALN; second short form of 800-Cap)
inhibitory activity against S. aureus adhesion to human keratinocyte line HaCaT (S. aureus [1]): little or no inhibitory activity

mouse equivalent of 800-CAP: the mouse equivalent of 800-CAP; probably SEQ ID NO: 6 (DEPQRETLKAIHMALD; listed as Mus musculus)
bacterial load in skin after 5 days (S. aureus SH1000 [7]): significantly reduced

peptide 7: synthetic peptide with helix-preserving Ala residues replacing Pro27/Thr31 (DEAQREALKAIHYALN; Pro27/Thr31 mutant 800-Cap peptide)
inhibitory activity against S. aureus adhesion to human keratinocyte line HaCaT (S. aureus [1]): retained full activity
